Reference: paper PMC6193035, “Novel small molecules affecting cell membrane as potential therapeutics for avian pathogenic Escherichia coli” (Scientific Reports, 2018)
Values after ≈ are worked out from the molar mass of the structure shown. Marks after values point to notes of the source that are not given here.

Columns and labels:
APEC O78 [1] = test: MIC and MBC determination in M63 media; type: cell-based, Escherichia coli; conditions: for MIC / MBC: Escherichia coli; for MBC: subculture on LB agar
Procedure: (§1) One microlitre SM of each concentration was transferred to each well of a 96-well plate containing 100 µL of the 0.05 OD600 adjusted APEC O78 culture in M63 media. Growth was monitored in Sunrise - Absorbance microplate reader as described above. MIC was indicated by lowest concentration of SM with non-elevated OD600 measurement. MBC was determined by absence of APEC growth on LB agar plate following subculture. […] Two independent experiments were conducted.

APEC O2 = test: MIC and MBC determination in M63 media; type: cell-based; conditions: Escherichia coli
APEC O115 = test: MIC and MBC determination in M63 media; type: cell-based; conditions: Escherichia coli
APEC O78-53 = test: MIC and MBC determination in M63 media; type: cell-based; conditions: Escherichia coli; APEC O78-53, M63 media
Procedure: as §1

[2] = test system: biofilm embedded APEC O78; test: MBEC High-throughput (HTP) assay; type: cell-based, Escherichia coli
Procedure: The effect of cidal SMs against biofilm embedded APEC was determined using MBEC High-throughput (HTP) assay (Innovotech Inc., AB, Canada)[22]. Briefly, 150 μL of 0.05 OD600 adjusted APEC O78 culture was aliquoted into each well of the MBEC device containing polystyrene pegs and incubated at 37 °C for 36 h in LB media under stationary condition. […] The plate was incubated in the dark for 18 h at 37 °C with rotation at 110 rpm. The DMSO (1%) and […] media were used as positive and negative controls, respectively. Following incubation, MIC of SMs in challenged plate was recorded. The SMs exposed pegs were then transferred to a new 96-well plate containing PBS and sonicated for 30 mins (Aquasonic ultrasonic cleaner, VWR) to disrupt the biofilm. The sonicated suspensions were ten-fold serially diluted and plated on LB agar plate. Biofilm embedded APEC bacteria were enumerated and minimum biofilm eradication concentration (MBEC) of SMs were determined as described previously. Two independent experiments were conducted.

APEC O78 [3] = test: Loss of 260/280 nm absorbing materials assay; type: cell-based, Escherichia coli; conditions: 2X MBC, 1 h; for Absorbance 280 nm of treated supernatant: DMSO 2.58; for Absorbance 280 nm of treated supernatant / Absorbance 260 nm of treated supernatant: superscript a P < 0.05 vs DMSO; for Absorbance 260 nm of treated supernatant: DMSO 3.77
Procedure: Membrane permeability assays (crystal violet (CV) uptake and loss of 260/280 nm absorbing materials) were conducted as described previously. […] CV uptake was measured using the formula: (OD DMSO − OD SM/OD DMSO × 100). Two independent experiments in duplicates were conducted.

[4] = test system: intracellular APEC O1 in Caco-2 cells; test: Intracellular survival assay; type: cell-based, Escherichia coli; conditions: for minimal effective concentration: Escherichia coli, O1, Caco-2, 6 h treatment, read-out: SMs intracellular APEC clearance concentration; for concentration at which the SM significantly (P < 0.01) reduced intracellular APEC (superscript of t-statistic): O1, Caco-2, 6 h
Procedure: (§2) Intracellular survival assay was conducted as described previously[28],[29] to determine the effect of cidal SMs on APEC survival in phagocytic (HD11, THP-1) and non-phagocytic (Caco-2) cells. Briefly, mid-logarithmic phase grown APEC O78, O1, and O2 were washed and adjusted to 1 × 10^7 CFU/mL in cell culture incomplete media (no FBS and antibiotics). One-hundred microlitres adjusted APEC suspension was added at multiplicity of infection (MOI) 10 to wells of 96-well cell culture plate containing cultured macrophage (HD11, THP-1) and epithelial cells (Caco-2) and incubated for 1 h and 3 h, respectively. […] The cells were then lysed with 100 µL of 0.1% Triton X-100 for 5 mins, serially diluted, and plated on LB agar plate to enumerate viable bacteria. The intracellular bacteria in SMs treated wells were compared with DMSO (1%) treated wells. Two independent experiments in duplicate wells for each concentration of SMs were conducted.

[5] = test system: intracellular APEC O1 in HD11 cells; test: Intracellular survival assay; type: cell-based, Escherichia coli; conditions: for minimal effective concentration: Escherichia coli, O1, HD11, 6 h treatment, read-out: SMs intracellular APEC clearance concentration; for concentration at which the SM significantly (P < 0.01) reduced intracellular APEC (superscript of t-statistic): O1, HD11, 6 h
Procedure: as §2

[6] = test system: intracellular APEC O1 in THP-1 cells; test: Intracellular survival assay; type: cell-based, Escherichia coli; conditions: for minimal effective concentration: Escherichia coli, O1, THP-1, 6 h treatment, read-out: SMs intracellular APEC clearance concentration; for concentration at which the SM significantly (P < 0.01) reduced intracellular APEC (superscript of t-statistic): O1, THP-1, 6 h
Procedure: as §2

[7] = test system: intracellular APEC O2 in Caco-2 cells; test: Intracellular survival assay; type: cell-based, Escherichia coli; conditions: for minimal effective concentration: Escherichia coli, O2, Caco-2, 6 h treatment, read-out: SMs intracellular APEC clearance concentration; for concentration at which the SM significantly (P < 0.01) reduced intracellular APEC (superscript of t-statistic): O2, Caco-2, 6 h
Procedure: as §2

[8] = test system: intracellular APEC O2 in HD11 cells; test: Intracellular survival assay; type: cell-based, Escherichia coli; conditions: for minimal effective concentration: Escherichia coli, O2, HD11, 6 h treatment, read-out: SMs intracellular APEC clearance concentration; for intracellular APEC clearance concentration as multiple of MIC (superscript): O2, HD11; for concentration at which the SM significantly (P < 0.01) reduced intracellular APEC (superscript of t-statistic): O2, HD11, 6 h
Procedure: as §2

[9] = test system: intracellular APEC O2 in THP-1 cells; test: Intracellular survival assay; type: cell-based, Escherichia coli; conditions: for minimal effective concentration: Escherichia coli, O2, THP-1, 6 h treatment, read-out: SMs intracellular APEC clearance concentration; for concentration at which the SM significantly (P < 0.01) reduced intracellular APEC (superscript of t-statistic): O2, THP-1, 6 h
Procedure: as §2

[10] = test system: intracellular APEC O78 in Caco-2 cells; test: Intracellular survival assay; type: cell-based, Escherichia coli; conditions: for minimal effective concentration: Escherichia coli, O78, Caco-2, 6 h treatment, read-out: SMs intracellular APEC clearance concentration; for intracellular APEC clearance concentration as multiple of MIC (superscript): O78, Caco-2; for concentration at which the SM significantly (P < 0.01) reduced intracellular APEC (superscript of t-statistic): O78, Caco-2, 6 h
Procedure: as §2

[11] = test system: intracellular APEC O78 in HD11 cells; test: Intracellular survival assay; type: cell-based, Escherichia coli; conditions: for minimal effective concentration: Escherichia coli, O78, HD11, 6 h treatment, read-out: SMs intracellular APEC clearance concentration; for intracellular APEC clearance concentration as multiple of MIC (superscript): O78, HD11; for concentration at which the SM significantly (P < 0.01) reduced intracellular APEC (superscript of t-statistic): O78, HD11, 6 h
Procedure: as §2

[12] = test system: intracellular APEC O78 in THP-1 cells; test: Intracellular survival assay; type: cell-based, Escherichia coli; conditions: for minimal effective concentration: Escherichia coli, O78, THP-1, 6 h treatment, read-out: SMs intracellular APEC clearance concentration; for intracellular APEC clearance concentration as multiple of MIC (superscript): O78, THP-1; for concentration at which the SM significantly (P < 0.01) reduced intracellular APEC (superscript of t-statistic): O78, THP-1, 6 h
Procedure: as §2

[13] = test system: intracellular APEC O78, O2, and O1 in infected Caco-2, HD11, and THP1 cells; test: Intracellular survival assay, statements over all serotypes and cells; type: cell-based, Escherichia coli; conditions: for minimal effective concentration: Escherichia coli, 6 h, O78, O2 and O1, Caco-2, HD11, THP-1, read-out: concentration clearing intracellular APEC
Procedure: as §2

| SMILES | MIC (APEC O78 [1]) [µM] | MBC (APEC O78 [1]) [µM] | MBC (APEC O2) [µM] | MIC (APEC O2) [µM] | MBC (APEC O115) [µM] | MIC (APEC O115) [µM] | MBC (APEC O78-53) [µM] | MIC (APEC O78-53) [µM] | 280 nm absorbing materials in supernatant compared with DMSO (APEC O78 [3]) | Absorbance 280 nm of treated supernatant (APEC O78 [3]) | Absorbance 260 nm of treated supernatant (APEC O78 [3]) | minimal effective concentration [4] [µM] | concentration at which the SM significantly (P < 0.01) reduced intracellular APEC (superscript of t-statistic) [4] | minimal effective concentration [5] [µM] | concentration at which the SM significantly (P < 0.01) reduced intracellular APEC (superscript of t-statistic) [5] | minimal effective concentration [6] [µM] | concentration at which the SM significantly (P < 0.01) reduced intracellular APEC (superscript of t-statistic) [6] | minimal effective concentration [7] [µM] | concentration at which the SM significantly (P < 0.01) reduced intracellular APEC (superscript of t-statistic) [7] | minimal effective concentration [8] [µM] | other results |
| --- | --- | --- | --- | --- | --- | --- | --- | --- | --- | --- | --- | --- | --- | --- | --- | --- | --- | --- | --- | --- | --- |
| CC(=O)OC(C(Br)C(=O)c1ccc([N+](=O)[O-])cc1)C(Cl)(Cl)Cl (centres unmarked) [SM10] | 25 (≈ 10.8 µg/mL) | 50 (≈ 21.7 µg/mL) | 50 (≈ 21.7 µg/mL) | 25 (≈ 10.8 µg/mL) | 50 (≈ 21.7 µg/mL) | 25 (≈ 10.8 µg/mL) | 50 (≈ 21.7 µg/mL) | 25 (≈ 10.8 µg/mL) | significantly (P < 0.05, Student’s t-test) increased | 2.73^a | 3.98^a | 100 | b (1X MIC) | > 100 | b (1X MIC) | > 100 | b (1X MIC) | 100 | b (1X MIC) | 100 | concentration that significantly (P < 0.01) reduced biofilm embedded APEC ([2]; no eradication): 1 X MIC; MBEC as multiple of MIC ([2]; tested 0.5X to 8X MIC): > 8 X MIC; 260 nm absorbing materials in supernatant compared with DMSO (APEC O78 [3]): significantly (P < 0.05, Student’s t-test) increased; intracellular APEC clearance concentration as multiple of MIC (superscript) ([4]; O1, Caco-2): c (4X MIC); intracellular APEC clearance concentration as multiple of MIC (superscript) ([7]; O2, Caco-2): c (4X MIC); intracellular APEC clearance concentration as multiple of MIC (superscript) [8]: c (4X MIC); concentration at which the SM significantly (P < 0.01) reduced intracellular APEC (superscript of t-statistic) [8]: b (1X MIC); minimal effective concentration [9]: 50 µM; concentration at which the SM significantly (P < 0.01) reduced intracellular APEC (superscript of t-statistic) [9]: b (1X MIC); minimal effective concentration [10]: 100 µM; intracellular APEC clearance concentration as multiple of MIC (superscript) [10]: c (4X MIC); concentration at which the SM significantly (P < 0.01) reduced intracellular APEC (superscript of t-statistic) [10]: b (1X MIC); minimal effective concentration [11]: 50 µM; intracellular APEC clearance concentration as multiple of MIC (superscript) [11]: b (2X MIC); concentration at which the SM significantly (P < 0.01) reduced intracellular APEC (superscript of t-statistic) [11]: c (2XMIC); minimal effective concentration [12]: 100 µM; intracellular APEC clearance concentration as multiple of MIC (superscript) [12]: c (4X MIC); concentration at which the SM significantly (P < 0.01) reduced intracellular APEC (superscript of t-statistic) [12]: b (1X MIC); minimal effective concentration [13]: ≤ 100 µM; ranking in clearing intracellular APEC ([13]; all tested serotypes and cells): most effective SMs in clearing intracellular APEC serotypes in all tested cells |
| COc1cc(CNCCc2ccc3ccccc3c2)ccc1OCC(O)CN1CCCC1 (centres unmarked) [SM2] | 100 (≈ 43.5 µg/mL) | 100 (≈ 43.5 µg/mL) | 250 (≈ 109 µg/mL) | 200 (≈ 86.9 µg/mL) | 200 (≈ 86.9 µg/mL) | 200 (≈ 86.9 µg/mL) | 200 (≈ 86.9 µg/mL) | 100 (≈ 43.5 µg/mL) | significantly (P < 0.05, Student’s t-test) increased | 2.86^a | 3.71 | > 200 | a (0.5X MIC) | 200 | a (0.5X MIC) | 200 | a (0.5X MIC) | > 200 | b (1X MIC) | 200 | MBC relative to MIC (APEC O78 [1]): identical to MIC; MBEC as multiple of MIC (superscript) ([2]; 18 h challenge in M63 media): b (1X MIC); intracellular APEC clearance concentration as multiple of MIC (superscript) ([6]; O1, THP-1): b (2X MIC); intracellular APEC clearance concentration as multiple of MIC (superscript) [8]: b (2X MIC); concentration at which the SM significantly (P < 0.01) reduced intracellular APEC (superscript of t-statistic) [8]: a (0.5X MIC); minimal effective concentration [9]: 100 µM; concentration at which the SM significantly (P < 0.01) reduced intracellular APEC (superscript of t-statistic) [9]: b (1X MIC); minimal effective concentration [10]: 100 µM; intracellular APEC clearance concentration as multiple of MIC (superscript) [10]: a (1X MIC); concentration at which the SM significantly (P < 0.01) reduced intracellular APEC (superscript of t-statistic) [10]: a (0.5X MIC); minimal effective concentration [11]: 100 µM; intracellular APEC clearance concentration as multiple of MIC (superscript) [11]: a (1X MIC); concentration at which the SM significantly (P < 0.01) reduced intracellular APEC (superscript of t-statistic) [11]: a (0.5X MIC); minimal effective concentration [12]: 100 µM; intracellular APEC clearance concentration as multiple of MIC (superscript) [12]: a (1X MIC); concentration at which the SM significantly (P < 0.01) reduced intracellular APEC (superscript of t-statistic) [12]: a (0.5X MIC); minimal effective concentration [13]: ≥ 100 µM |
